This assay deals with M. tuberculosis H37Rv growth inhibition. The assay can be described thus: M. tuberculosis H37Rv growth inhibitors, H37Rv strain (AID 1626). The note with it: for IC90: measured here: IC90 against H37Rv; for CC50: measured here: Vero cell cytotoxicity.

Molecules are shown by their SMILES. pIC50: −log10 of the molar value. Some results are limits rather than exact numbers.

Turning to `CCOC(=O)C(C)Sc1nnc(NC(=O)c2ccc(C)c([N+](=O)[O-])c2)s1` (centres undefined), the negative-log IC50 (pIC50) – broadly, the negative decadic logarithm of the IC50, by convention in mol/L – was 5.17 and the concentration for an effect of 90% (IC90) (commonly the concentration at which the effect reaches the 90% level) was 12.1 µM.
Turning to `CC(C)=CCOc1ccc([C@@H]2COc3c(ccc4c3C=CC(C)(C)O4)C2)c(O)c1`, the negative-log IC50 (pIC50) was 4.71; the IC90 worked out at 60.9 µM; the CC50 (as a rule, the concentration at which the toxic effect on the cells reaches its halfway point) was over 40 µM.
The matching figures for `O=C(O)c1ccc(-c2nc(-c3ccc(Cl)cc3)cs2)cc1`: 4.05, over 100 µM and over 40 µM.
Take `CN(C)c1ccc(NC(=O)Cn2cc3c(n2)CCCC3)cc1`: the pIC50 was 4.89 and the 90% effect concentration (IC90) turned out to be 18.6 µM.
For `CC/C(=C(\c1ccc(O)cc1)c1ccc(OCCN(C)C)cc1)c1ccccc1`, the negative logarithm of the IC50 (pIC50) was 5.06, the concentration for an effect of 90% (IC90) was 12.3 µM and the CC50 came to 14.1 µM.
The matching figures for `OC(CNCCC1C=Nc2ccccc21)Cn1c2ccc(Cl)cc2c2cc(Cl)ccc21` (centres undefined): 5.74, 2.03 µM and 5.96 µM.
`N#CC(c1ccc(Cl)cc1)c1ccc2c(C(F)(F)F)cc(C(F)(F)F)nc2n1` (centres undefined): the pIC50 is 6.24, the IC90 turned out to be 0.691 µM and the CC50 is 0.904 µM.
As for `CCOC(=O)c1ccc(NC(=O)CCc2nc(-c3ccccc3)no2)cc1`, the pIC50 is 5.63, the IC90 was over 100 µM and the CC50 was over 40 µM.
As to `CCC1CCCCN1C(=O)COC(=O)c1cc2ccccc2cc1O` (centres undefined), the negative-log IC50 (pIC50) was 5.90 and the IC90 was determined as 4.34 µM.
With `O=C1CCCCc2sc(Br)c([N+](=O)[O-])c2N1`, the negative-log IC50 (pIC50) was 5.07, the IC90 was found to be 15.4 µM and the cytotoxic concentration (CC50) is 14.4 µM.
The matching figures for `COc1cccc(C(=O)Nc2ccc3nc(N4CCN(c5ncccn5)CC4)cc(C)c3c2)c1OC`: over 6.71, 1.72 µM and 15.2 µM.
The matching figures for `O=C(Nc1nnc(-c2ccc3c(c2)OCCO3)o1)c1ccc(Cc2ccccc2)cc1`: 5.77, over 100 µM and 38.1 µM.
Take `O=C(COc1ccccc1[N+](=O)[O-])c1ccccc1`: the pIC50 was 4.77, the IC90 was over 100 µM and the cytotoxic concentration (CC50) was 30 µM.
The matching figures for `Clc1ccc2c(c1)C(c1ccccc1Cl)=NCc1nnc(N3CCN(CCOc4ccccc4)CC3)n1-2`: 4.90, 16.7 µM and over 40 µM.
In the case of `Brc1ccc(OCc2nc(-c3ccccn3)n[nH]2)cc1`, the CC50 was found to be 10.6 µM.
On to `CCC(=C(c1ccc(OC)cc1)c1ccc(OC)cc1)c1cn(CC(O)CN(CCO)CCO)c2ccccc12` (centres undefined), for which the pIC50 is 4.90, the IC90 came to 13.6 µM and the 50% cytotoxic concentration (CC50) came out at 26.5 µM.
The matching figures for `O=C(CSc1ncnc2sc3c(c12)CCCC3)N1CCC(c2noc3ccc(F)cc23)CC1`: 5.53, 4.24 µM and over 40 µM.
The matching figures for `CN(C)c1ccc(/C=C/C=C2/C(=O)NC(=O)N(c3ccccc3)C2=O)cc1`: 5.60, 4.66 µM and over 40 µM.
The matching figures for `CC(=O)/C=C(\C)Nc1ccccc1O`: 6.00, 2.44 µM and over 40 µM.
As for `CCOC(=O)c1cnc(Nc2nc3ccccc3o2)nc1C`, the negative logarithm of the IC50 (pIC50) was 4.69, the IC90 is over 100 µM and the CC50 was 22.5 µM.
For `CCCCNC(=O)COC(=O)c1cc(Br)ccc1Cl`, the negative logarithm of the IC50 (pIC50) is 5.36 and the IC90 was 10.5 µM.
Take `Cc1ccc(NS(=O)(=O)c2cc(NC(=O)c3ccc4c(c3)NC(=O)CS4)ccc2C)c(C)c1`: the pIC50 is 4.95, the 90% effect concentration (IC90) is over 100 µM and the CC50 was over 40 µM.
`CCCOC(=O)c1ccc(NC(=O)CCOc2ccccc2)cc1`: the pIC50 was 6.21 and the IC90 is over 100 µM.
The matching figures for `CCOC(=O)c1ccc(-n2c(CN(CC)CC)nc3ccc([N+](=O)[O-])cc3c2=O)cc1`: 4.27 and over 100 µM.
For `CC(C)(C)c1nn(-c2ccccc2)c2[nH]c(=O)c(CNCc3ccc4c(c3)OCO4)cc12`, the pIC50 is 4.95, the 90% effect concentration (IC90) was 13.8 µM and the half-maximal cytotoxic concentration (CC50) is over 40 µM.
The matching figures for `Cc1ccc(C(=O)N/C(=C\c2ccc(-c3ccc(Br)cc3)o2)C(=O)NCCCN(C)C)cc1`: 4.81, 18.2 µM and 6.45 µM.
`COc1ccc(C[C@H]2CN3C(=NC[C@H]3Cc3ccccc3)N2CCNC(=O)CCC2CCCCC2)cc1`: the pIC50 is 4.96, the IC90 stood at 12.3 µM and the half-maximal cytotoxic concentration (CC50) stood at 29 µM.
The matching figures for `Cc1cc(C)n(-c2nc(N(c3ccccc3)c3ccccc3)nc(-n3nc(C)cc3C)n2)n1`: 5.56, 10.4 µM and over 40 µM.
On to `CCOC(=O)CSc1nnc(-c2ccc(OC)cc2OC)o1`, for which the pIC50 was 5.91 and the IC90 was 2.38 µM.
The matching figures for `CC1CCN(C(=O)COC(=O)c2cc3ccccc3cc2O)CC1`: 6.20 and 2.51 µM.
For the molecule `Cc1cccc(-c2ncc(CN3CCC(CO)(CCCc4ccccc4)CC3)cn2)c1`, the negative logarithm of the IC50 (pIC50) was 4.88, the IC90 stood at 40.7 µM and the CC50 is over 40 µM.
For the molecule `Cc1cc(C)nc(/N=C(\N)Nc2ccc(-c3ccccc3)cc2)n1`, the pIC50 was 5.56, the concentration for an effect of 90% (IC90) is 11 µM and the CC50 was over 40 µM.
In turn, `O=C(Cc1cccs1)N1CCN=C1SCc1ccc(Br)cc1` displayed an IC90 of over 100 µM.
On to `CCOC(=O)CSc1ncnc2c1cnn2-c1ccc(Cl)cc1`, for which the negative-log IC50 (pIC50) is 5.99 and the concentration for an effect of 90% (IC90) is over 100 µM.
The matching figures for `O=C(CSCC(=O)Nc1ccc2ccccc2c1)NCc1ccccc1`: 4.45 and over 100 µM.
As to `O=C(Nc1ccc(CSc2ccccc2)cc1)c1ccc(CN2CCOCC2)cc1`, the negative-log IC50 (pIC50) is 4.49, the 90% effect concentration (IC90) was over 100 µM and the CC50 was over 40 µM.
With `COCCn1nnnc1C(c1cc2cc(OC)ccc2[nH]c1=O)N1CCC(Cc2ccccc2)CC1` (centres undefined), the negative-log IC50 (pIC50) was 5.12 and the IC90 was determined as 15.8 µM.
The matching figures for `O=C(Nc1ccc(Oc2ccccc2)cc1)C1CCCO1` (centres undefined): 4.47 and over 100 µM.
The matching figures for `CCOC(=O)c1ccc(NC(=O)CCOc2ccc(OC)cc2)cc1`: 5.02 and over 100 µM.
For `Cc1cccc(C(=O)Nc2ccc(C(=O)/C=C/c3cccnc3)cc2)c1`, the pIC50 was 5.22, the IC90 amounted to 9.07 µM and the CC50 is 22.3 µM.
The matching figures for `C/C(=C\C(=O)c1ccncc1)Nc1ccccc1O`: over 6.71, 28.2 µM and over 40 µM.
The matching figures for `CCCCCOc1ccc(C(=O)NCC(=O)NCC(=O)OCC)cc1`: 5.24, 6.53 µM and over 40 µM.
The matching figures for `O=c1[nH]c(-c2ccccn2)nc(C(F)(F)F)c1Br`: 6.31, 1.02 µM and 33.4 µM.
Turning to `O=C(NC1=NCCS1)c1ccc(-c2ccc(Cl)cc2)o1`, the pIC50 is 4.55 and the IC90 was over 100 µM.
The matching figures for `O=C(CSc1ccncc1)Nc1ccc2ccccc2c1`: 5.94 and over 100 µM.
Turning to `N#C/C(=C/c1cn(-c2ccccc2)nc1-c1cccc(OCc2ccc(F)cc2)c1)C(=O)NCCCn1ccnc1`, the pIC50 is 5.38, the concentration for an effect of 90% (IC90) is 6.45 µM and the cytotoxic concentration (CC50) was found to be 22.5 µM.
The matching figures for `CCc1ccc2c(c1)/C(=C/C(=O)c1cccs1)C(=O)N2`: 5.51, 12.2 µM and 18.9 µM.
Turning to `C=CCn1c(COc2ccc3c(c2)CCCC3)nnc1SCC(=O)Nc1cccc(SC)c1`, the IC90 was over 100 µM.
Turning to `O=C(CCCSc1ccccc1)Nc1nc(-c2ccccn2)cs1`, the pIC50 was 6.62, the 90% effect concentration (IC90) worked out at 5.04 µM and the CC50 is over 40 µM.
The matching figures for `C/C(=C\C(=S)Nc1ccccc1)Nc1ccc2ccccc2c1`: 5.36, 48.9 µM and over 40 µM.
In the case of `C/C(=C\C(=O)c1ccc(C)o1)Nc1ccc2c(c1)OCO2`, the concentration for an effect of 90% (IC90) was over 100 µM.
As to `Cc1ccc(C)c(N=Nc2nc3ccccc3n2C)c1`, the pIC50 is 5.88, the IC90 worked out at 1.7 µM and the CC50 was over 40 µM.
The matching figures for `Cc1cc(N2CCCCC2)nc2ccc(NC(=O)c3ccc(Br)o3)cc12`: 5.77, 3.38 µM and over 40 µM.
`CCc1sc(N)nc1-c1ccccc1` showed an IC90 of over 100 µM.
Consider `Oc1cccc2ccc(/C=C/c3cccs3)nc12`, for which the pIC50 was 5.83, the IC90 was 4.51 µM and the CC50 is over 40 µM.
Take `C=CCNc1nnc(Sc2ncccc2[N+](=O)[O-])s1`: the pIC50 was 5.40 and the IC90 was 6.01 µM.
`Cc1nccc(-c2ccc(-n3c(C)ccc3C)cc2)n1` showed an IC90 of over 100 µM and a CC50 of over 40 µM.
Take `Cc1ccc(Nc2c(-c3ccccn3)nc3cc(C)ccn23)cc1`: the pIC50 is 5.86, the IC90 amounted to 1.55 µM and the CC50 worked out at 1.39 µM.
The matching figures for `O=C1c2cccc3c([N+](=O)[O-])ccc(c23)C(=O)N1Cc1cccnc1`: 5.69, 3.69 µM and 6.25 µM.
The matching figures for `O=C1C(NS(=O)(=O)c2cccs2)=C(N2CCN(c3cccc(C(F)(F)F)c3)CC2)C(=O)c2ccccc21`: 5.39, 7.38 µM and over 40 µM.
With `O=C(/C=C/c1cccc([N+](=O)[O-])c1)c1cccs1`, the pIC50 was 4.95 and the concentration for an effect of 90% (IC90) is 12.8 µM.
For `CCN1CCN(Cc2ccc(NC(=O)c3ccc(C)c(NC(=O)C(=O)c4c[nH]c5ccccc45)c3)cc2C(F)(F)F)CC1`, the pIC50 is 5.36, the IC90 was 5.57 µM and the 50% cytotoxic concentration (CC50) was 6.73 µM.
`O=C(Nc1cc(Cl)ccc1O)c1cc2n(n1)C(C(F)(F)F)CC(c1ccc3c(c1)OCO3)N2` (centres undefined) had a CC50 of over 40 µM.

For the origin of these results see PubChem BioAssay AID1626 (SRMLSC, 2009).
